Measured values: US6610675B1 (priority 1980, dated 2003)

How the values were obtained:
Format in all cases: in vivo, rat
[1] = tested on: granulation tissue formation caused by implantation of cotton pellets; test: Granuloma formation test (local cotton pellet granuloma assay)
Procedure: The test compound was dissolved in acetone and aliquots of varying concentrations were injected into cotton pellets. The pellets were dried and then one pellet was implanted beneath the skin of each test rat. Six days later, the animals were sacrificed and the granulation tissue (granuloma) which formed in and around the implanted pellet was removed, dried and weighed. In addition, the thymi and adrenals were removed and weighed.

[2] = tested on: ear swelling induced by croton oil; test: Ear edema test; details: 1 mg/kg topical, 6 hr
Procedure: The test animals were Sprague/Dawley rats weighing approximately 150 grams each. In treatment groups, selected amounts of the test compound were dissolved in acetone containing 5% croton oil and 50 microliters of the solution were applied to the inner surface of the right ear of the rats. A control group was identically treated with vehicle only, i.e. 5% croton oil in acetone. Six hours after croton oil challenge, a constant region of each ear was removed by dissection under anesthesia. Then, 48 hours after steroid treatment, the animals were sacrificed and the thymi and adrenals were removed and weighed. The test results showing the inhibitory effect of topically applied steroids on the ear swelling induced by croton oil are summarized in Table II below.

thymus weight in rats = test: Thymus inhibition testing (subcutaneous administration); details: for Body weight gain / Thymus / Thymus Inhibition: Table VII, three days
In short: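 Male Sprague-Dawley rats were dosed systemically. On the fifth day, 48 hours after the last treatment, animals were sacrificed and thymus weights recorded.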

## CCCC(=O)O[C@]1(C(=O)CO)CC[C@H]2[C@@H]3CCC4=CC(=O)CC[C@]4(C)[C@H]3[C@@H](O)C[C@@]21C [Hydrocortisone 17-butyrate, reference compound]
[1]; Table III, 1 mg/pellet
  Body wt. gain: 33.4 ± 1.4 g
  Granulation tissue Dry wt.: 32.2 ± 5.0 mg/100 g body wt.
  Granulation tissue Inhibition: 26.3%
[1]; Table III, 3 mg/pellet
  Body wt. gain: 15.9 ± 1.4 g
  Granulation tissue Dry wt.: 21.6 ± 2.2 mg/100 g body wt.
  Granulation tissue Inhibition: 50.6%
[1]; Table III, 10 mg/pellet
  Body wt. gain: 4.9 ± 1.0 g
  Granulation tissue Dry wt.: 29.2 ± 3.1 mg/100 g body wt.
  Granulation tissue Inhibition: 33.2%
[1]; Table IV, 300 μg/pellet
  Body wt. gain: 26.2 ± 1.7 g
  Granulation tissue Dry wt.: 34.0 ± 5.3 mg
  Granulation tissue Dry wt. Inhibition: 58.1%
  Granulation tissue Wet wt.: 333 ± 21 mg
  Granulation tissue Wet wt. Inhibition: 41.2%
  Thymus wt.: 353 ± 37 mg
  Thymus wt. (Decrease %): (20.7) %
[1]; Table IV, 1000 μg/pellet
  Body wt. gain: 26.2 ± 1.2 g
  Granulation tissue Dry wt.: 35.3 ± 4.2 mg
  Granulation tissue Dry wt. Inhibition: 56.5%
  Granulation tissue Wet wt.: 366 ± 24 mg
  Granulation tissue Wet wt. Inhibition: 35.3%
  Thymus wt.: 99 ± 7 mg
  Thymus wt. (Decrease %): (77.8) %
[1]; Table IV, 3000 μg/pellet
  Body wt. gain: 6.7 ± 2.2 g
  Granulation tissue Dry wt.: 28.0 ± 2.7 mg
  Granulation tissue Dry wt. Inhibition: 65.5%
  Granulation tissue Wet wt.: 329 ± 14 mg
  Granulation tissue Wet wt. Inhibition: 41.9%
  Thymus wt.: 58 ± 5 mg
  Thymus wt. (Decrease %): (87.0) %
[1]; Table IV, 10000 μg/pellet
  Body wt. gain: -2.0 ± 2.4 g
  Granulation tissue Dry wt.: 27.2 ± 2.4 mg
  Granulation tissue Dry wt. Inhibition: 66.5%
  Granulation tissue Wet wt.: 311 ± 7 mg
  Granulation tissue Wet wt. Inhibition: 45.1%
  Thymus wt.: 46 ± 7 mg
  Thymus wt. (Decrease %): (89.7) %
[1]; Table XII, anti-inflammatory effect in cotton pellet granuloma
  ED50: 480 μg/pellet
[1]; dose causing 60% inhibition of granulation tissue weight
  ED60: 1015 μg/pellet
[2]
  Ear Weight, % Increase: −3.6 ± 3.5 %
  Ear Weight, % Inhibition: 106.0%
  Ear Weight, Inflamed Ear: 50.0 ± 2.3 mg
  Ear Weight, Untreated Ear: 52.0 ± 2.5 mg
Thymus weight in rats; 0.3 mg/kg/day s.c.
  Body weight gain: 17.0 ± 0.8 g
  Thymus: 441 ± 27 mg
  Thymus Inhibition: 6.4%
Thymus weight in rats; 1 mg/kg/day s.c.
  Body weight gain: 11.8 ± 0.8 g
  Thymus: 323 ± 16 mg
  Thymus Inhibition: 31.4%
Thymus weight in rats; 3 mg/kg/day s.c.
  Body weight gain: 7.3 ± 0.5 g
  Thymus: 166 ± 5 mg
  Thymus Inhibition: 64.8%
Thymus weight in rats; 10 mg/kg/day s.c.
  Body weight gain: -5.0 ± 1.1 g
  Thymus: 65 ± 5 mg
  Thymus Inhibition: 86.2%
Thymus weight in rats; Table X, dose required to achieve 40% inhibition of thymi weight, subcutaneous
  TED40: 1.3 mg
Thymus weight in rats; Table X, dose required to achieve 50% inhibition of thymi weight, subcutaneous
  TED50: 2.0 mg
Thymus weight in rats; Table XII, thymus inhibition effect, subcutaneously
  TED40: 1.3 mg/kg
